Reference: the supplement of paper PMC11451515

System: SEM cells
Assay: cell viability relative to DMSO control; higher = less cytotoxic
Details: 48 h
In short: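 NOMO1 or SEM (500 cells/well) or P12-Ichikawa (1000 cells/well) leukemia cells were adapted for at least four passages in each medium. They were seeded in 1536-well plates (5 μl) and pin-dosed with library compounds in DMSO over an 11-point threefold series, 47 μM to 0.79 nM. CellTiter-Glo One luminescence was read after 48 h at 37°C. Viability is the per-plate percentage relative to DMSO wells, with cell-free wells as background.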

[1] = HPLM + 10% dialyzed FBS, 0.000781 µM
[2] = HPLM + 10% dialyzed FBS, 0.00234 µM
[3] = HPLM + 10% dialyzed FBS, 0.00702 µM
[4] = HPLM + 10% dialyzed FBS, 0.0211 µM
[5] = HPLM + 10% dialyzed FBS, 0.0632 µM
[6] = HPLM + 10% dialyzed FBS, 0.19 µM
[7] = HPLM + 10% dialyzed FBS, 0.569 µM
[8] = HPLM + 10% dialyzed FBS, 1.71 µM
[9] = HPLM + 10% dialyzed FBS, 5.12 µM
[10] = HPLM + 10% dialyzed FBS, 15.4 µM
[11] = HPLM + 10% dialyzed FBS, 46.1 µM
[12] = RPMI 5 mM glucose + 10% FBS, 0.000781 µM
[13] = RPMI 5 mM glucose + 10% FBS, 0.00234 µM
[14] = RPMI 5 mM glucose + 10% FBS, 0.00702 µM
[15] = RPMI 5 mM glucose + 10% FBS, 0.0211 µM
[16] = RPMI 5 mM glucose + 10% FBS, 0.0632 µM
[17] = RPMI 5 mM glucose + 10% FBS, 0.19 µM
[18] = RPMI 5 mM glucose + 10% FBS, 0.569 µM
[19] = RPMI 5 mM glucose + 10% FBS, 1.71 µM
[20] = RPMI 5 mM glucose + 10% FBS, 5.12 µM
[21] = RPMI 5 mM glucose + 10% FBS, 15.4 µM
[22] = RPMI 5 mM glucose + 10% FBS, 46.1 µM
[23] = RPMI 5 mM glucose + 10% dialyzed FBS, 0.000781 µM
[24] = RPMI 5 mM glucose + 10% dialyzed FBS, 0.00234 µM
[25] = RPMI 5 mM glucose + 10% dialyzed FBS, 0.00702 µM
[26] = RPMI 5 mM glucose + 10% dialyzed FBS, 0.0211 µM
[27] = RPMI 5 mM glucose + 10% dialyzed FBS, 0.0632 µM
[28] = RPMI 5 mM glucose + 10% dialyzed FBS, 0.19 µM
[29] = RPMI 5 mM glucose + 10% dialyzed FBS, 0.569 µM
[30] = RPMI 5 mM glucose + 10% dialyzed FBS, 1.71 µM
[31] = RPMI 5 mM glucose + 10% dialyzed FBS, 5.12 µM
[32] = RPMI 5 mM glucose + 10% dialyzed FBS, 15.4 µM
[33] = RPMI 5 mM glucose + 10% dialyzed FBS, 46.1 µM

Structure (SMILES)	cell viability [1] [%]	cell viability [2] [%]	cell viability [3] [%]	cell viability [4] [%]	cell viability [5] [%]	cell viability [6] [%]	cell viability [7] [%]	cell viability [8] [%]	cell viability [9] [%]	cell viability [10] [%]	cell viability [11] [%]	cell viability [12] [%]	cell viability [13] [%]	cell viability [14] [%]	cell viability [15] [%]	cell viability [16] [%]	cell viability [17] [%]	cell viability [18] [%]	cell viability [19] [%]	cell viability [20] [%]	cell viability [21] [%]	cell viability [22] [%]	cell viability [23] [%]	cell viability [24] [%]	cell viability [25] [%]	cell viability [26] [%]	cell viability [27] [%]	cell viability [28] [%]	cell viability [29] [%]	cell viability [30] [%]	cell viability [31] [%]	cell viability [32] [%]	cell viability [33] [%]
CCCc1nc(C(C)(C)O)c(C(=O)O)n1Cc1ccc(-c2ccccc2-c2nn[nH]n2)cc1	104	116	97.3	112	119	116	58.6	60	118	120	110	76.4	88.1	69.3	76.7	84.5	76.5	69	46.8	79.2	82.6	62.3	96	104	109	98.5	104	109	90.3	56	103	105	103
CC(NC1=CC=CC=C1)C\2=C\C(=C/N3C(=O)\C=C(/N=C23)N4CCOCC4)C (configuration not stated)	96.9	86.4	108	99.1	101	108	107	108	103	97.3	86.5	99.1	101	117	126	103	101	128	119	117	101	12.2	95.3	79.7	113	106	94.3	73.8	101	110	98.3	87.3	53.8
COC1=CC2=NC=CC(=C2C=C1)OC3=CN=C(NC(=O)C/4=C(C)/N(CC(C)(C)O)N(C4=O)C5=CC=CC=C5)C=C3	82.3	84.7	63.1	83.6	89.4	86.1	79.1	52.1	32.7	36.4	31	108	96.2	91.6	108	103	99	82	60.9	29.3	36	31	74.1	82.1	76.7	77.8	79.4	80	60.5	50.3	32.8	33.2	27.4
CC(=O)Oc1ccccc1C(=O)O	104	99.4	105	106	102	106	105	97.3	88.2	99.9	96.7	110	104	100	120	107	104	120	111	99.3	105	95.1	102	99.4	109	111	108	102	113	108	108	100	111
CC[C@H](CC#N)OC(=O)N[C@@H](C)c1cccc(NC(=O)Nc2ccc(-c3cnco3)c(OC)c2)c1	105	98.7	111	119	118	86.2	71.8	74.8	44.5	30.3	31.6	108	112	114	118	112	96	76.3	68	47.7	30.2	18.1	107	110	124	105	105	112	100	99.6	67.9	43.3	38.7
CN1[C@@H]2CC(OC(=O)[C@@H](CO)c3ccccc3)C[C@H]1[C@H]1O[C@H]12 (some centres not stated)	85.3	88.7	91	84.7	93.5	106	102	110	108	102	98	80.9	82.9	80.7	85	90.6	113	96.2	106	89.2	97	97.9	90.2	88.8	105	86.3	96.3	105	117	114	101	113	108
FC(F)(F)c1ccc(/C=C/c2nc(COc3ccc(CCCCn4ccnn4)cc3)co2)cc1	116	119	123	108	103	111	109	108	103	109	98.7	117	103	116	95.3	105	78.3	104	81	94.2	94.4	85.7	110	124	103	91.3	95.9	86	82.3	84.9	79.3	70.9	84
CC1=CC=CC=C1N2\C(=N/C3=C(C(=CC=C3)C)C2=O)C[N]4C=NC5=C4N=CN=C5N	97.1	110	115	92.6	83.8	77.7	67.3	72.1	49.6	46.6	37.2	90.8	93	94.3	65.9	83.4	62.1	59.4	54.8	45	34.4	20.8	93.2	112	120	84.3	90	77.5	68.1	64.8	53.5	46.2	33.8
CCC(C)SSc1ncc[nH]1 (configuration not stated)	87.4	90.2	107	101	91	97.5	89	36.2	81.9	57.8	7.14	93.9	91.5	88.7	102	92.7	109	93.8	17.7	82.9	29.9	6.98	85.7	75.8	83.2	83.9	89.8	108	78.8	27.2	73.6	10.3	6.57
COC[C@H]1OC(=O)C2=COC3=C2[C@@]1(C)\C4=C(C5CCC(=O)[C@@]5(C)C[C@H]4OC(C)=O)/C3=O (some centres not stated)	72.1	84.9	96.8	17.5	99.5	93	93.6	95.6	85.6	82	95.3	90.8	107	101	14.7	109	102	107	111	81.5	92.2	80.3	89.2	84.6	88.9	16.4	88.6	85.1	94.8	82.9	77.1	63.5	50.9
COC1=NC(=NC(=C1N\C2=N\CCN2)Cl)C	71.4	88.7	47.6	91.8	99.9	94.1	114	102	44.4	108	100	81	79.3	45	84	79.6	83.5	106	81.9	34.1	103	99.2	74.6	80	46.6	102	104	104	101	101	49.6	98.7	113
[NH2][Pt]1([NH2])[O]CC(=O)[O]1	78.3	95.6	96.2	92.2	91.2	102	94.4	97	108	96.7	89.7	104	100	110	96.4	108	109	95.5	101	103	88.3	96.3	75.6	84.2	85.7	83.6	88.1	87.7	76.9	94.9	79	91.5	92.3
OC1=CC=C(C=C1)\C2=C\OC3=C(C=CC(=C3)O)C2=O	102	96.6	103	109	114	102	104	102	108	101	94.5	100	89.9	109	104	107	96.5	99.4	104	112	96.7	104	96.7	97.1	109	118	101	101	107	112	110	101	104
CCC[C@H](NC(=O)/C(C#N)=C/c1cccc(Br)n1)c1ccccc1	121	125	119	26.5	124	117	111	124	120	98.6	6.55	94.4	110	104	17.6	112	111	102	113	111	57.1	7.49	–	–	–	–	–	–	–	–	–	–	–
O=C([O-])C(O)Cc1ccc(O)c(O)c1 (configuration not stated)	93.4	111	93.6	95.6	96	81.2	79.2	76.4	71.2	74.2	55	102	111	105	96.8	107	96.3	87.3	76.2	88.5	75.7	53.4	93.7	109	101	96	79.8	96.3	69	76.8	60.4	74.5	50.4
C/C=C(/C)C(=O)O[C@H]1C(C)=C2[C@H]([C@@H]1OC(=O)CCCCCCC)[C@@](C)(OC(C)=O)C[C@H](OC(=O)CCC)[C@@]1(O)[C@H]2OC(=O)[C@@]1(C)O	95	112	111	101	57	13.1	8.77	7.59	7.07	6.17	6.69	105	112	113	85.7	23.8	10.4	6.8	6.65	7.69	5.62	6.01	107	138	114	82.7	33.8	9.51	7.63	5.08	4.94	3.37	3.69
